This data set is described as follows: physchem. The note with it: organic solvent or mixture. The format is physicochemical.

The structures appear in SMILES notation. In brackets after ≈: the same amount, converted by molar mass.

With `CCC1C(C)=NN=C(c2ccc(OC)c(OC)c2)c2cc(OC)c(OC)cc21` (racemic) [racemic tofisopam, 1-(3,4-dimethoxyphenyl)-4-methyl-5-ethyl-7,8-dimethoxy-5H-2,3-benzodiazepine], the solubility was approximately 136 mg/mL (≈ 354 mM).

The values above are taken from patent US7265106B2, “Method for isolating (R)-tofisopam” (Vela Aquisition Corporation, priority 2003, dated 2007).
